Reference: article PMC7144022, “Quinolinecarboxamides Inhibit the Replication of the Bovine Viral Diarrhea Virus by Targeting a Hot Spot for the Inhibition of Pestivirus Replication in the RNA-Dependent RNA Polymerase” (Molecules, 2020)

Assays:
[1] = Cytotoxicity assay, proliferation of exponentially growing MDBK cells (MTS/PMS); format: cell-based, bovine; conditions: bovine
Description: Assays were carried out, as described previously.

[2] = tested on: BVDV NADL virus; assay: CPE-based antiviral assay, BVDV NADL in MDBK cells (MTS/PMS); conditions: for EC50: Bovine viral diarrhea virus isolates and strains, MDBK, 72 h; for S.I.: selectivity index, CC50 vs EC50
[3] = sheet CSFCII#, potency relative to TO502-2403 (EC50 0.2 µM)
[4] = sheet CSFCI#, potency relative to TO505-6180 (EC50 0.07 µM)

Row | Compound | CC50 at 5 days [1] | EC50 [2] | S.I. [2] | fold increase [2, 3] | fold increase [2, 4]
1 | Cc1cccc2sc(NC(=O)c3cc(-c4cccc(F)c4)nc4ccccc34)nc12 [CSFC-62, Fc1cccc(c1)c3nc2ccccc2c(c3)C(=O)Nc4nc5c(C)cccc5s4] | 25 ± 5 µM | 25 µM | 1 | 0.008 | 
2 | O=C(Nc1ccn(-c2ccccc2)n1)c1cc(-c2cccs2)nc2ccc(I)cc12 [CSFC-97, O=C(Nc1ccn(n1)c2ccccc2)c4cc(nc3ccc(I)cc34)c5cccs5] | > 100 µM | 4.1 µM | 24 | 0.05 | 
3 | Cc1cccc2sc(NC(=O)c3cc(-c4ccncc4)nc4ccccc34)nc12 [CSFC-115, Cc1cccc2sc(nc12)NC(=O)c4cc(nc3ccccc34)c5ccncc5] | > 100 µM | 0.2 µM | 500 | 1.00 | 
4 | COc1ccc(-c2cc(C(=O)Nc3nc4c(C)cccc4s3)c3ccccc3n2)cc1 [CSFC-117, COc1ccc(cc1)c3nc2ccccc2c(c3)C(=O)Nc4nc5c(C)cccc5s4] | > 100 µM | 1.7 µM | 59 | 0.12 | 
5 | COc1ccc2nc(NC(=O)c3cc(-c4ccc(F)cc4)nc4ccccc34)sc2c1 [CSFC-68, Fc1ccc(cc1)c3nc2ccccc2c(c3)C(=O)Nc4nc5ccc(cc5s4)OC] | > 100 µM | 0.2 µM | 500 | 1.00 | 
6 | O=C(Nc1nc2ccc(Br)cc2s1)c1cc(-c2ccccc2)nc2ccccc12 [CSFC-14, Brc1ccc2nc(NC(=O)c3cc(nc4ccccc43)c3ccccc3)sc2c1] | > 100 µM | 1.4 µM | 71 |  | 0.05
7 | COc1ccc2nc(NC(=O)c3cc(-c4ccco4)nc4ccc(F)cc34)sc2c1 [CSFC-63, Fc1cc2c(cc1)nc(cc2C(=O)Nc3nc4ccc(cc4s3)OC)c5ccco5] | > 100 µM | 18.8 µM | 5 | 0.0106 | 
8 | Cc1ccc2nc(NC(=O)c3cc4ccccc4n3C)sc2c1 [CSFC-26, Cn1c2ccccc2cc1C(=O)Nc1nc2ccc(C)cc2s1] | > 100 µM | > 100 µM | 1 |  | 0.0007
9 | COc1ccc2nc(NC(=O)c3cc(-c4ccccc4)nc4ccccc34)sc2c1 [CSFC-9, COc1ccc2nc(NC(=O)c3cc(nc4ccccc43)c3ccccc3)sc2c1] | > 100 µM | 0.3 µM | 333 |  | 0.23
10 | O=C(Nc1ccn(-c2ccccc2)n1)c1cc(-c2ccc(F)cc2)nc2ccc(F)cc12 [CSFC-123, Fc1ccc(cc1)c3nc2ccc(F)cc2c(c3)C(=O)Nc4ccn(n4)c5ccccc5] | > 100 µM | 0.3 µM | 333 | 0.67 | 
11 | Cc1ccc2nc(NC(=O)c3ccnc4ccccc34)sc2c1 [CSFC-17, Cc1ccc2nc(sc2c1)NC(=O)c4ccnc3ccccc34] | > 100 µM | 100 µM | 1 | 0.002 | 
12 | Cc1ccc(-c2cc(C(=O)Nc3nc4c(C)cccc4s3)c3ccccc3n2)o1 [CSFC-49, Cc1ccc(o1)c3nc2ccccc2c(c3)C(=O)Nc4nc5c(C)cccc5s4] | > 100 µM | 0.7 µM | 143 | 0.29 | 
13 | Cn1c(NC(=O)c2cc(-c3ccccc3)nc3ccccc23)nc2ccccc21 [CSFC-4, O=C(Nc1nc2ccccc2n1C)c1cc(nc2ccccc21)c1ccccc1] | > 100 µM | > 100 µM | 1 |  | 0.0007
14 | COc1ccc(-c2cc(C(=O)Nc3ccn(-c4ccccc4)n3)c3ccccc3n2)cc1F [CSFC-107, COc1ccc(cc1F)c3nc2ccccc2c(c3)C(=O)Nc4ccn(n4)c5ccccc5] | > 100 µM | 0.6 µM | 167 | 0.33 | 
15 | CC(C)(C)c1cc(NC(=O)c2cc(-c3ccccc3)nc3ccccc23)no1 [CSFC-32, O=C(Nc1cc(on1)C(C)(C)C)c3cc(nc2ccccc23)c4ccccc4] | > 100 µM | 7.2 µM | 14 | 0.0278 | 
16 | Cc1ccc2nc(NC(=O)c3cc(-c4ccccc4)nc4ccccc34)sc2c1 [CSFC-2, Cc1ccc2nc(NC(=O)c3cc(nc4ccccc43)c3ccccc3)sc2c1] | > 100 µM | 5.7 µM | 18 |  | 0.0123
17 | COc1ccc2nc(NC(=O)c3cc(-c4cccc(F)c4)nc4ccccc34)sc2c1 [CSFC-67, Fc1cccc(c1)c3nc2ccccc2c(c3)C(=O)Nc4nc5ccc(cc5s4)OC] | > 100 µM | 0.9 µM | 111 | 0.22 | 
18 | Cc1ccc2nc(NC(=O)c3cc4ccccc4[nH]3)sc2c1 [CSFC-28, Cc1ccc2nc(NC(=O)c3cc4ccccc4[NH]3)sc2c1] | > 100 µM | > 100 µM | 1 |  | 0.0007
19 | Cc1ccc2nc(NC(=O)c3cccnc3)sc2c1 [CSFC-23, Cc1ccc2nc(NC(=O)c3cccnc3)sc2c1] | > 100 µM | > 100 µM | 1 |  | 0.0007
20 | O=C(Nc1ccccc1O)c1cc(-c2ccccc2)nc2ccccc12 [CSFC-137, Oc1ccccc1NC(=O)c1cc(nc2ccccc12)c1ccccc1] | > 100 µM | > 100 µM | 1 |  | 0.0007
21 | O=C(Nc1nc2cc(F)ccc2s1)c1cc(-c2ccco2)nc2ccccc12 [CSFC-54, Fc1cc2nc(sc2cc1)NC(=O)c4cc(nc3ccccc34)c5ccco5] | > 100 µM | 100 µM | 1 | 0.002 | 
22 | O=C(Nc1ccn(-c2cccc(F)c2)n1)c1cc(-c2cccnc2)nc2ccccc12 [CSFC-127, Fc1cccc(c1)n2ccc(n2)NC(=O)c4cc(nc3ccccc34)c5cccnc5] | > 100 µM | 100 µM |  | 0.002 | 
23 | O=C(Nc1ccn(-c2ccccc2)n1)c1cc(-c2cccs2)nc2ccccc12 [CSFC-47, O=C(Nc1ccn(n1)c2ccccc2)c4cc(nc3ccccc34)c5cccs5] | > 100 µM | 1.7 µM | 59 | 0.12 | 
24 | Cc1cccc2sc(NC(=O)c3cc(-c4ccco4)nc4ccc(CO)cc34)nc12 [CSFC-74, OCc1cc2c(cc1)nc(cc2C(=O)Nc1nc2c(C)cccc2s1)c1ccco1] | > 100 µM | 100 µM | 1 | 0.002 | 
25 | O=C(Nc1ccn(-c2cccc(Cl)c2)n1)c1cc(-c2ccccc2)nc2ccccc12 [CSFC-132, Clc1cccc(c1)n2ccc(n2)NC(=O)c4cc(nc3ccccc34)c5ccccc5] | > 100 µM | 0.02 µM |  | 10.00 | 
26 | O=C(Nc1ccn(-c2ccccc2)n1)c1cc(-c2cc3ccccc3o2)nc2ccccc12 [CSFC-92, O=C(Nc1ccn(n1)c2ccccc2)c3cc(nc4ccccc34)c5cc6ccccc6o5] | > 100 µM | 0.3 µM | 333 | 0.67 | 
27 | COc1ccc2nc(NC(=O)c3cc(-c4cc(C)oc4C)nc4ccccc34)sc2c1 [CSFC-86, O=C(c2cc(nc1ccccc12)c3cc(oc3C)C)Nc4nc5ccc(cc5s4)OC] | > 100 µM | 0.3 µM | 333 | 0.67 | 
